Test results reported in patent US20040002425A1, “Triketone derivatives and herbicides” (Idemitsu Kosan Co., Ltd., priority 1998, published 2004).

System: Transplanted paddy rice plant
Assay: Biological Test 1 (treatment on the 3rd day after transplantation): chemical injury to paddy rice
Type: in vivo
Design: scale not given here
Conditions: Treatment performed 3 days after transplantation
Protocol: (1) Preparation of Herbicide
Talc (57 parts by weight) and bentonite (40 parts by weight), both serving as carriers, and sodium alkylbenzenesulfate (3 parts by weight) serving as a surfactant were homogeneously ground and mixed to thereby obtain a carrier for water-dispersible powder.
Subsequently, to the water-dispersible powder (90 parts by weight), the triketone derivative (compound No. A-1) produced in Example I-1 (10 parts by weight) was added, and the resultant mixture was homogeneously ground and mixed to thereby obtain a herbicide.
(i) Biological Test 1 (Soaking in Water/Treatment on the 3rd Day After Transplantation)
A Wagner pot (1/2000 are) was filled with paddy soil, and seeds of barnyard grass were planted on the surface layer of the soil, and further, rice seedlings grown to the 2.5-leaf stage were transplanted.
Subsequently, water was poured in the pot to a height of 3 cm above the soil surface, and placed in a greenhouse where the temperature was maintained at 20-25° C., to thereby grow the plant under suitable conditions.
On the 3rd day after transplantation, the herbicide prepared in (1) above was applied to the plant in a predetermined amount. On the 30th day after treatment with the herbicide, weed-killing ratio, herbicidal effect, and extent of chemical injury to paddy rice were examined.
In Biological tests 1 and 2, herbicidal effect and extent of chemical injury were evaluated according to the below-described standards.
3) Chemical Injury to Paddy Rice
Chemical injury to paddy rice was evaluated according to the following criteria.

[1] = dose 100 g/ha, examined on the 30th day after treatment
[2] = dose 200 g/ha, examined on the 30th day after treatment

SMILES | Chemical injury, Transplanted paddy rice plant [1] | Chemical injury, Transplanted paddy rice plant [2] | Chemical injury, Transplanted paddy rice plant (dose 100 g/ha) | Chemical injury, Transplanted paddy rice plant (dose 200 g/ha)
CC1(C)CC(=O)C(C(=O)c2ccc3c(c2Cl)CCS3(=O)=O)=C(O)C1 [A-9, 4-chloro-5-(5,5-dimethyl-1,3-dioxocyclohexan-2-yl)carbonyl-2,3-dihydrobenzothiophene-1,1-dioxide] | 1 | 3 |  | 
O=C1CCCC(Br)=C1C(=O)c1ccc2c(c1Cl)CCS2(=O)=O [B-6] |  |  | 0 | 0
Cc1cc(C(=O)C2=C(SCc3ccccc3)CCCC2=O)c(C)c2c1S(=O)(=O)CCC2OC(C)C (stereo not drawn) [B-70] |  |  | 0 | 0
CO/N=C1\CCS(=O)(=O)c2c(C)cc(C(=O)C3=C(S(=O)(=O)c4ccc(C)cc4)CCCC3=O)c(C)c21 [B-60, 4-methoxyimino-5,8-dimethyl-6-[3-(4-methylphenyl)sulfonyl-1-oxocyclohexan-2-yl]carbonylthiochroman-1,1-1,1-dioxide] |  |  | 0 | 0
Cc1cc(C(=O)C2=C(Sc3ccccc3)CCCC2=O)c(C)c2c1S(=O)(=O)CCC2OC(C)C (stereo not drawn) [B-68, 4-(2-propyl)oxy-5,8-dimethyl-6-(3-phenylthio-1-oxocyclohexan-2-yl)carbonylthiochroman-1,1-dioxide] |  |  | 0 | 0
Cc1c(C(=O)C2=C(Cl)CCCC2=O)ccc2c1C(=O)C(C)(C)CS2(=O)=O [B-63] |  |  | 3 | 5
CO/N=C1\CCS(=O)(=O)c2c(C)cc(C(=O)C3=C(N(C)C)CCCC3=O)c(C)c21 [B-55, 4-methoxyimino-5,8-dimethyl-6-(3-dimethylamino-1-oxocyclohexan-2-yl)carbonylthiochroman-1,1-1,1-dioxide] |  |  | 0 | 0
O=C1CCCC(Sc2ccccc2)=C1C(=O)c1ccc2c(c1Cl)CCCS2(=O)=O [B-78] |  |  | 0 | 0
Cc1cc(C(=O)C2=C(S(C)(=O)=O)CCCC2=O)c(C)c2c1S(=O)(=O)CCC2OC(C)C (stereo not drawn) [B-69] |  |  | 0 | 1
O=C1CCCC(S(=O)(=O)c2ccccc2O)=C1C(=O)c1ccc2c(c1Cl)CCS2(=O)=O [B-49] |  |  | 0 | 0
Cc1cc(C(=O)C2=C(O)CC(C)(C)CC2=O)c(Cl)c2c1S(=O)(=O)CC2 [A-10, 4-chloro-7-methyl-5-(5,5-dimethyl-1,3-dioxocyclohexan-2-yl)carbonyl-2,3-dihydrobenzothiophene-1,1-dioxide] | 1 | 3 |  | 
CC1CC(=O)C(C(=O)c2ccc3c(c2Cl)CCS3(=O)=O)=C(Sc2ccccc2)C1 (stereo not drawn) [B-26] |  |  | 0 | 0
CO/N=C1\CCS(=O)(=O)c2ccc(C(=O)C3=C(Sc4ccccc4)CCCC3=O)c(C)c21 [B-74, 4-methoxyimino-5-methyl-6-(3-phenylthio-1-oxocyclohexan-2-yl)carbonylthiochroman-1,1-dioxide] |  |  | 0 | 0
COc1ccc(SC2=C(C(=O)c3ccc4c(c3Cl)CCS4(=O)=O)C(=O)CCC2)cc1 [B-20] |  |  | 0 | 0
CSC1=C(C(=O)c2cc(C)c3c(c2C)C(OC(C)C)CCS3(=O)=O)C(=O)CCC1 (stereo not drawn) [B-67] |  |  | 0 | 1
CC(C)SC1=C(C(=O)c2ccc3c(c2Cl)CCS3(=O)=O)C(=O)CCC1 [B-9] |  |  | 0 | 0
CO/N=C1\CCS(=O)(=O)c2c(C)cc(C(=O)C3=C(Sc4ccc(C)cc4)CCCC3=O)c(C)c21 [B-59, 4-methoxyimino-5,8-dimethyl-6-[3-(4-methylphenyl)thio-1-oxocyclohexan-2-yl]carbonylthiochroman-1,1-1,1-dioxide] |  |  | 0 | 0

SMILES | Chemical injury, Transplanted paddy rice plant [1] | Chemical injury, Transplanted paddy rice plant [2] | Chemical injury, Transplanted paddy rice plant (dose 100 g/ha) | Chemical injury, Transplanted paddy rice plant (dose 200 g/ha)
O=C1CCCC(O)=C1C(=O)c1cccc2c1OCCO2 [Comparative Example I-2, reference compound] | 0 | 0 |  | 
CSC1=C(C(=O)c2ccc3c(c2Cl)CCS3(=O)=O)C(=O)CCC1 [B-7] |  |  | 0 | 0
Cc1cc(C(=O)C2=C(O)CCCC2=O)c(C)c2c1S(=O)(=O)C(C)C2 (stereo not drawn) [Comparative Example I-4, reference compound] | 2 | 4 |  | 
O=C1CCCC(Sc2ccccc2O)=C1C(=O)c1ccc2c(c1Cl)CCS2(=O)=O [B-48] |  |  | 0 | 0
CO/N=C1\CCS(=O)(=O)c2c(C)cc(C(=O)C3=C(Cl)CCCC3=O)c(C)c21 [B-54] |  |  | 1 | 4
CCCSC1=C(C(=O)c2ccc3c(c2Cl)CCS3(=O)=O)C(=O)CCC1 [B-8, 4-chloro-5-[3-(3-propyl)thio-1-oxocyclohexan-2-yl]carbonyl-2,3-dihydrobenzothiophene-1,1-dioxide] |  |  | 0 | 0
Cc1cc(C(=O)C2=C(O)CCCC2=O)c(C)c2c1S(=O)(=O)CC2C (stereo not drawn) [Comparative Example I-3, reference compound] | 3 | 4 |  | 
O=C1CCCC(S(=O)(=O)c2ccc(Br)cc2)=C1C(=O)c1ccc2c(c1Cl)CCS2(=O)=O [B-42] |  |  | 0 | 0
Cc1ccccc1S(=O)(=O)C1=C(C(=O)c2ccc3c(c2Cl)CCS3(=O)=O)C(=O)CCC1 [B-32] |  |  | 0 | 0
COc1ccc(S(=O)(=O)C2=C(C(=O)c3ccc4c(c3Cl)CCS4(=O)=O)C(=O)CCC2)cc1 [B-37] |  |  | 0 | 0
O=C1CCCC(S(=O)(=O)c2ccccc2)=C1C(=O)c1ccc2c(c1Cl)CCS2(=O)=O [B-31] |  |  | 0 | 0
CCCSC1=C(C(=O)c2cc(C)c3c(c2C)/C(=N/OC)CCS3(=O)=O)C(=O)CCC1 [B-61, 4-methoxyimino-5,8-dimethyl-6-[3-(3-propyl)thio-1-oxocyclohexan-2-yl)carbonylthiochroman-1,1-1,1-dioxide] |  |  | 0 | 0
Cc1cc(C(=O)C2=C(Cl)CCCC2=O)c(Cl)c2c1S(=O)(=O)CC2 [B-4] |  |  | 1 | 2
CCCCSC1=C(C(=O)c2ccc3c(c2Cl)CCS3(=O)=O)C(=O)CCC1 [B-10] |  |  | 0 | 0
O=C1CCCC(S(=O)(=O)c2ccccc2Cl)=C1C(=O)c1ccc2c(c1Cl)CCS2(=O)=O [B-35] |  |  | 0 | 0
O=C1CCCC(Cl)=C1C(=O)c1ccc2c(c1Cl)CCCS2(=O)=O [B-77] |  |  | 0 | 0
